Results on 26 sequences are retold here after US8029764B2, “Methods for detection of colorectal cancer” (The Johns Hopkins University, priority 2001, dated 2011).

This data set has as its system colorectal tissue transcripts. Briefly: SAGE of normal, adenoma and cancer colorectal tissue (transcript tag counts). The following applies: for AD1 (SAGE tag count): SAGE library AD1; for AD2 (SAGE tag count): SAGE library AD2; for CA1 (SAGE tag count): SAGE library CA1; for CA2 (SAGE tag count): SAGE library CA2; for NC1 (SAGE tag count): SAGE library NC1; for NC2 (SAGE tag count): SAGE library NC2. Also noted: species or system human. From the text:
In an effort to identify potential molecular markers of early colorectal tumors, we have here analyzed gene expression in benign and malignant colorectal tumors in an unbiased and comprehensive fashion. We used SAGE to analyze global gene expression in normal, benign and malignant colorectal tissue. SAGE is a gene expression profiling method that associates individual mRNA transcripts with 15-base tags derived from specific positions near their 3′ termini (3). The abundance of each tag provides a quantitative measure of the transcript level present within the mRNA population studied. SAGE is not dependent on pre-existing databases of expressed genes, and therefore provides an unbiased view of gene expression profiles. For the current study, SAGE libraries derived from two samples of normal colonic epithelium, two colorectal adenomas, and two colorectal cancers were analyzed.
SAGE. For the initial SAGE^3 of benign tumors, fresh adenomas were obtained from surgical specimens derived from FAP patients. Adenomas from FAP patients were employed because of the ready availability of small lesions and the certainty of inactivation of the APC pathway which initiates the formation of the majority of sporadic tumors. After histopathological verification of the neoplastic nature of the lesion (>70% neoplastic cells), total RNA was isolated by solubilizing the tissue in RNAgents Lysis Buffer (Promega, Madison, Wis.) followed by ultracentrifugation over a cesium chloride gradient. mRNA selection was performed from the purified total RNA using oligo(dT) cellulose (Life Technologies, Gaithersburg, Md.). […] Tags were extracted from the raw sequence data and, after excluding repeated ditags, linker sequences, and tags from the polyrnorphic Major Histocompatibility loci, the resulting tag libraries were compared and statistical analysis performed using SAGE software, version 4.0. Data from the libraries are publicly available at the Uniform Resource Locator (URL) address for the http file type found on the www host server that has a domain name of ncbi.nlm.nih.gov, and a path to the directory SAGE, and detailed SAGE protocols are available at the Uniform Resource Locator (URL) address for the http file type found on the www host server that has a domain name of sagenet.org, and file name of sage_protocol.htn.

Regarding “CCCAACGCGC (chemistry not fully specified)”, the “AD1 (SAGE tag count)” value amounted to 3, the “AD2 (SAGE tag count)” value came out at 5, the “CA1 (SAGE tag count)” value worked out at 0 and the “CA2 (SAGE tag count)” value came out at 2. The “NC1 (SAGE tag count)” value came out at 106 and the “NC2 (SAGE tag count)” value is recorded as 1.

“CCCCCGAAGC (chemistry not fully specified)”: the “AD1 (SAGE tag count)” value is given as 3, the “AD2 (SAGE tag count)” value was determined as 15, the “CA1 (SAGE tag count)” value came to 4 and the “CA2 (SAGE tag count)” value turned out to be 8. For the same sequence, the “NC1 (SAGE tag count)” value is given as 25 and the “NC2 (SAGE tag count)” value is recorded as 27.

For the sequence “CCCCCGCGGA (chemistry not fully specified)”, the “AD1 (SAGE tag count)” value turned out to be 6, the “AD2 (SAGE tag count)” value is 11, the “CA1 (SAGE tag count)” value is reported as 4 and the “CA2 (SAGE tag count)” value was found to be 12. In addition, the “NC1 (SAGE tag count)” value is 33 and the “NC2 (SAGE tag count)” value is 25.

Consider “CCCCCTGCAT (chemistry not fully specified)”, for which the “AD1 (SAGE tag count)” value is 0, the “AD2 (SAGE tag count)” value is 0, the “CA1 (SAGE tag count)” value is 0 and the “CA2 (SAGE tag count)” value amounted to 0. The “NC1 (SAGE tag count)” value was determined as 5 and the “NC2 (SAGE tag count)” value was 4.

On to “CCCGCCTCTT (chemistry not fully specified)”, for which the “AD1 (SAGE tag count)” value is on record as 3, the “AD2 (SAGE tag count)” value is listed as 3, the “CA1 (SAGE tag count)” value is 16 and the “CA2 (SAGE tag count)” value stood at 1. Moreover, the “NC1 (SAGE tag count)” value is reported as 0 and the “NC2 (SAGE tag count)” value is reported as 40.

Consider “CCCTCCCGAA (chemistry not fully specified)”, for which the “AD1 (SAGE tag count)” value turned out to be 9, the “AD2 (SAGE tag count)” value stood at 14, the “CA1 (SAGE tag count)” value is given as 18 and the “CA2 (SAGE tag count)” value was found to be 7. Also, the “NC1 (SAGE tag count)” value was found to be 89 and the “NC2 (SAGE tag count)” value turned out to be 54.

Turning to “CCGCTGCACT (chemistry not fully specified)”, the “AD1 (SAGE tag count)” value came out at 55, the “AD2 (SAGE tag count)” value is on record as 46, the “CA1 (SAGE tag count)” value was determined as 37 and the “CA2 (SAGE tag count)” value worked out at 30. The “NC1 (SAGE tag count)” value is on record as 127 and the “NC2 (SAGE tag count)” value worked out at 102.

For the sequence “CCGGCTTGAG (chemistry not fully specified)”, the “AD1 (SAGE tag count)” value was found to be 0, the “AD2 (SAGE tag count)” value amounted to 0, the “CA1 (SAGE tag count)” value was 0 and the “CA2 (SAGE tag count)” value came out at 0. The “NC1 (SAGE tag count)” value is given as 7 and the “NC2 (SAGE tag count)” value is 4.

Consider “CCTCCAGCTA (chemistry not fully specified)”, for which the “AD1 (SAGE tag count)” value worked out at 142, the “AD2 (SAGE tag count)” value is 125, the “CA1 (SAGE tag count)” value came to 131 and the “CA2 (SAGE tag count)” value is listed as 147. The “NC1 (SAGE tag count)” value is on record as 715 and the “NC2 (SAGE tag count)” value was found to be 458.

As to “CCTCCAGTAC (chemistry not fully specified)”, the “AD1 (SAGE tag count)” value worked out at 2, the “AD2 (SAGE tag count)” value is on record as 3, the “CA1 (SAGE tag count)” value is 2 and the “CA2 (SAGE tag count)” value turned out to be 4. The “NC1 (SAGE tag count)” value worked out at 20 and the “NC2 (SAGE tag count)” value turned out to be 8.

Turning to “CCTGCCCCCC (chemistry not fully specified)”, the “AD1 (SAGE tag count)” value amounted to 6, the “AD2 (SAGE tag count)” value was 3, the “CA1 (SAGE tag count)” value amounted to 11 and the “CA2 (SAGE tag count)” value turned out to be 4. Moreover, the “NC1 (SAGE tag count)” value stood at 20 and the “NC2 (SAGE tag count)” value came out at 30.

Regarding “CCTGCTGCAG (chemistry not fully specified)”, the “AD1 (SAGE tag count)” value is 0, the “AD2 (SAGE tag count)” value was found to be 1, the “CA1 (SAGE tag count)” value is listed as 6 and the “CA2 (SAGE tag count)” value came to 9. Moreover, the “NC1 (SAGE tag count)” value is given as 7 and the “NC2 (SAGE tag count)” value is 34.

On to “CCTGCTTGTC (chemistry not fully specified)”, for which the “AD1 (SAGE tag count)” value is given as 0, the “AD2 (SAGE tag count)” value is 3, the “CA1 (SAGE tag count)” value is given as 0 and the “CA2 (SAGE tag count)” value is recorded as 5. The “NC1 (SAGE tag count)” value was 20 and the “NC2 (SAGE tag count)” value is reported as 23.

As for “CCTGGAAGAG (chemistry not fully specified)”, the “AD1 (SAGE tag count)” value stood at 11, the “AD2 (SAGE tag count)” value worked out at 4, the “CA1 (SAGE tag count)” value is 12 and the “CA2 (SAGE tag count)” value was determined as 16. The “NC1 (SAGE tag count)” value was 30 and the “NC2 (SAGE tag count)” value is recorded as 26.

Regarding “CCTGTCTGCC (chemistry not fully specified)”, the “AD1 (SAGE tag count)” value is listed as 0, the “AD2 (SAGE tag count)” value is 1, the “CA1 (SAGE tag count)” value came to 1 and the “CA2 (SAGE tag count)” value amounted to 1. Moreover, the “NC1 (SAGE tag count)” value came out at 14 and the “NC2 (SAGE tag count)” value was determined as 22.

For the sequence “CCTGTGACAG (chemistry not fully specified)”, the “AD1 (SAGE tag count)” value is on record as 0, the “AD2 (SAGE tag count)” value came to 4, the “CA1 (SAGE tag count)” value was found to be 3 and the “CA2 (SAGE tag count)” value was found to be 1. The “NC1 (SAGE tag count)” value stood at 22 and the “NC2 (SAGE tag count)” value is 27.

On to “CCTTCAAATC (chemistry not fully specified)”, for which the “AD1 (SAGE tag count)” value is on record as 0, the “AD2 (SAGE tag count)” value is 0, the “CA1 (SAGE tag count)” value is recorded as 1 and the “CA2 (SAGE tag count)” value is recorded as 0. Also, the “NC1 (SAGE tag count)” value is 29 and the “NC2 (SAGE tag count)” value amounted to 17.

Regarding “CGAGGGGCCA (chemistry not fully specified)”, the “AD1 (SAGE tag count)” value was 18, the “AD2 (SAGE tag count)” value came out at 18, the “CA1 (SAGE tag count)” value is listed as 12 and the “CA2 (SAGE tag count)” value is recorded as 32. Besides, the “NC1 (SAGE tag count)” value was 110 and the “NC2 (SAGE tag count)” value is recorded as 47.

As to “CGCTGTGGGG (chemistry not fully specified)”, the “AD1 (SAGE tag count)” value is given as 19, the “AD2 (SAGE tag count)” value came out at 8, the “CA1 (SAGE tag count)” value worked out at 8 and the “CA2 (SAGE tag count)” value came to 6. Also, the “NC1 (SAGE tag count)” value came to 58 and the “NC2 (SAGE tag count)” value is reported as 53.

With “CGGACTCACT (chemistry not fully specified)”, the “AD1 (SAGE tag count)” value was found to be 5, the “AD2 (SAGE tag count)” value worked out at 14, the “CA1 (SAGE tag count)” value is listed as 14 and the “CA2 (SAGE tag count)” value is given as 10. In addition, the “NC1 (SAGE tag count)” value stood at 20 and the “NC2 (SAGE tag count)” value is recorded as 45.

For the sequence “CGGGAGTCGG (chemistry not fully specified)”, the “AD1 (SAGE tag count)” value came to 13, the “AD2 (SAGE tag count)” value is recorded as 2, the “CA1 (SAGE tag count)” value worked out at 9 and the “CA2 (SAGE tag count)” value worked out at 1. Further, the “NC1 (SAGE tag count)” value was 28 and the “NC2 (SAGE tag count)” value is reported as 30.

For the sequence “CGGTGGGACC (target site or template, no part of the molecule; chemistry not given here)”, the “AD1 (SAGE tag count)” value was found to be 1, the “AD2 (SAGE tag count)” value is recorded as 1, the “CA1 (SAGE tag count)” value was 3 and the “CA2 (SAGE tag count)” value is recorded as 3. The “NC1 (SAGE tag count)” value is 7 and the “NC2 (SAGE tag count)” value was determined as 14.

For “CGTGGGTGGG (chemistry not fully specified)”, the “AD1 (SAGE tag count)” value was 1, the “AD2 (SAGE tag count)” value stood at 0, the “CA1 (SAGE tag count)” value is listed as 0 and the “CA2 (SAGE tag count)” value was determined as 1. Further, the “NC1 (SAGE tag count)” value came out at 1 and the “NC2 (SAGE tag count)” value worked out at 10.

For “CTAGCCTCAC (chemistry not fully specified)”, the “AD1 (SAGE tag count)” value was found to be 30, the “AD2 (SAGE tag count)” value was determined as 53, the “CA1 (SAGE tag count)” value stood at 36 and the “CA2 (SAGE tag count)” value is listed as 58. For the same sequence, the “NC1 (SAGE tag count)” value is 172 and the “NC2 (SAGE tag count)” value is given as 90.

Regarding “CTCAGAACTT (chemistry not fully specified)”, the “AD1 (SAGE tag count)” value amounted to 1, the “AD2 (SAGE tag count)” value turned out to be 0, the “CA1 (SAGE tag count)” value amounted to 0 and the “CA2 (SAGE tag count)” value came to 0. The “NC1 (SAGE tag count)” value stood at 18 and the “NC2 (SAGE tag count)” value is listed as 3.

For the sequence “CTGAACCTCC (chemistry not fully specified)”, the “AD1 (SAGE tag count)” value is given as 2, the “AD2 (SAGE tag count)” value is reported as 0, the “CA1 (SAGE tag count)” value was 0 and the “CA2 (SAGE tag count)” value is listed as 0. Further, the “NC1 (SAGE tag count)” value is on record as 5 and the “NC2 (SAGE tag count)” value was found to be 15.
